One assay deals with hog renin. The note with it: after the injection of hog renin into nephrectomized rats; cited from earlier work.
In the next assay the test system is pepsin. To be noted: cited from earlier work.
The next assay concerns cathepsin D. The note with it: cited from earlier work.
The subject of a further assay is renin. To be noted: cited from earlier work.
Another assay concerns the target T1, human renin (Homo sapiens, UniProt P00797).
T1 construct: purchased National Institute for Biological Standards, London
T1 sequence (P00797 67-406): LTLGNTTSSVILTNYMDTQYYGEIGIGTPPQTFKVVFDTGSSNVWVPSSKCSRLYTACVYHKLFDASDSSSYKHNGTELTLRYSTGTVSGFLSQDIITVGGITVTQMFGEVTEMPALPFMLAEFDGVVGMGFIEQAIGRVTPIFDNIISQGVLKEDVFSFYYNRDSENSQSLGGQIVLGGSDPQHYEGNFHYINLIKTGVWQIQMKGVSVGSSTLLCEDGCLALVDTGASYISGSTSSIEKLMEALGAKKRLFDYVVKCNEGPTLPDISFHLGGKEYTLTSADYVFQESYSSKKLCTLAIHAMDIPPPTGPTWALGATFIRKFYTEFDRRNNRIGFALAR
As to the kind of experiment: Human Renin Inhibition in vitro (angiotensin I produced, by radioimmunoassay). It is filed as biochemical. The note with it: pH 7.4, 37° C., two hours, human plasma. Here is the method: Compounds of Formula I were evaluated as inhibitors of human renin in an in vitro assay, as follows: This human renin inhibition test has been previously described in detail [Papaioannou et al., Clinical and Experimental Hypertension, A7(9), 1243-1257 (1985)]. Human renin was obtained from the National Institute for Biological Standards, London. An incubation mixture was prepared containing the following components: in a total volume of 0.25 mL: 100 mM Tris-acetate buffer at pH 7.4, 25×10^-6 Goldblatt units of renin, 0.05 mL of plasma from human volunteers taking oral contraceptives, 6.0 mM Na-EDTA, 2.4 mM phenylmethyl sulfonyl fluoride, 1.5 mM 8-hydroxyquinoline, 0.4 mg/mL bovine serum albumin (BSA), and 0.024 mg/mL neomycin sulfate. This mixture was incubated for two hours at 37° C. in the presence or absence of renin inhibitors. The produced angiotensin I was determined by radioimmunoassay (New England Nuclear kit). Test compounds to be assayed were dissolved in DMSO and diluted with 100mM Tris-acetate buffer at pH 7.4 containing 0.5% BSA to the appropriate concentration. The final concentration of organic solvent in the reaction mixture was less than 1%. Control incubations at 37° C. were used to correct for effects of organic solvent on renin activity.

Non-standard residues stand in square brackets, D forms with d. Residues, ends and D or L forms follow the SMILES beside them. *: point of attachment. Sta = CC(C)C[C@H](N)[C@@H](O)CC(=O)O; Isovaleryl = CC(C)CC(=O)*

For `CC(C)CC(=O)N[C@H](C(=O)N[C@H](C(=O)N[C@@H](CC(C)C)[C@@H](O)CC(=O)N[C@@H](C)C(=O)N[C@@H](CC(C)C)[C@@H](O)CC(=O)O)C(C)C)C(C)C` [pepstatin] (Isovaleryl-VV[Sta]A[Sta]-OH), the “reduce blood pressure in vivo” value in the assay on hog renin is recorded as “reduce blood pressure in vivo”. Also, the inhibitor of pepsin entry in the assay on pepsin is “inhibitor”. Moreover, the “inhibitor of cathepsin D” value with cathepsin D is listed as “inhibitor”. In addition, the inhibitor of renin entry in the assay on renin is recorded as “inhibitor”.
Turning to `C#CC[C@H](NC(=O)[C@@H](CC(=O)N(C)CCc1ccccn1)Cc1ccccc1)C(=O)N[C@@H](CC1CCCCC1)[C@@H](O)[C@@H](O)CC(C)C` (relative stereo) [Example 1, N^1-[1R*-[[[1S, 1R*- (cyclohexylmethyl)-2S*, 3R*-dihydroxy-5-methylhexyl]amino]carbonyl]-3-butynyl]-N^4-methyl-2S*-(phenylmethyl)-N^4-[2-(2-pyridinyl)ethyl]butanediamide], the half-inhibitory concentration (IC50) (usually the concentration that inhibits the measured activity by half) on human renin worked out at 0.15 nM.

The record behind these values is patent publication US5563154A, “Tetrahydro-quinolinyl/isoquinolinyl-terminal alkylamino ethynyl alanine amino diol compounds for treatment of hypertension” (G. D. Searle & Co., priority 1995, dated 1996).
